# Experiments:
# [1] = target: Human α2δ-1 subunit of Cav2.2 calcium channel (Homo sapiens, UniProt P54289); assay: Human α2δ-1 subunit of Cav2.2 calcium channel assay, [3H]-Gabapentin binding; details: human α2δ-1 enriched membranes, 15 nM [3H]-Gabapentin
# Method: Human α2δ-1 Subunit of Cav2.2 Calcium Channel Assay
# Human α2δ-1 enriched membranes (2.5 μg) were incubated with 15 nM of radiolabeled [3H]-Gabapentin in assay buffer containing Hepes-KOH 10 mM, pH 7.4. NSB (non specific binding) was measured by adding 10 μM pregabalin. After 60 min incubation at 27° C., binding reaction was terminated by filtering through Multiscreen GF/C (Millipore) presoaked in 0.5% polyethyleneimine in Vacuum Manifold Station, followed by 3 washes with ice-cold filtration buffer containing 50 mM Tris-HCl, pH 7.4. Filter plates were dried at 60° C. for 1 hour and 30 μL of scintillation cocktail were added to each well before radioactivity reading. Readings were performed in a Trilux 1450 Microbeta radioactive counter (Perkin Elmer).
# [2] = target: Human norepinephrine transporter (NET) (Homo sapiens, UniProt P23975); assay: Binding assay to human norepinephrine transporter (NET), [3H]-Nisoxetin; details: human NET enriched membranes, 5 nM [3H]-Nisoxetin
# Method: Binding Assay to Human Norepinephrine Transporter (NET).
# Human norepinephrine transporter (NET) enriched membranes (5 μg) were incubated with 5 nM of radiolabeled [3H]-Nisoxetin in assay buffer containing 50 mM Tris-HCl, 120 mM NaCl, 5 mM KCl, pH 7.4.
# NSB (non specific binding) was measured by adding 1 μM. After 60 min incubation at 4° C., binding reaction was terminated by filtering through Multiscreen GF/C (Millipore) presoaked in 0.5% polyethyleneimine in Vacuum Manifold Station, followed by 3 washes with ice-cold filtration buffer containing 50 mM Tris-HCl, 0.9% NaCl, pH 7.4.
# Filter plates were dried at 60° C. for 1 hour and 30 μL of scintillation cocktail were added to each well before radioactivity reading.
# Readings were performed in a Trilux 1450 Microbeta radioactive counter (Perkin Elmer).
# Sequence of Human norepinephrine transporter (NET) (P23975 whole entry): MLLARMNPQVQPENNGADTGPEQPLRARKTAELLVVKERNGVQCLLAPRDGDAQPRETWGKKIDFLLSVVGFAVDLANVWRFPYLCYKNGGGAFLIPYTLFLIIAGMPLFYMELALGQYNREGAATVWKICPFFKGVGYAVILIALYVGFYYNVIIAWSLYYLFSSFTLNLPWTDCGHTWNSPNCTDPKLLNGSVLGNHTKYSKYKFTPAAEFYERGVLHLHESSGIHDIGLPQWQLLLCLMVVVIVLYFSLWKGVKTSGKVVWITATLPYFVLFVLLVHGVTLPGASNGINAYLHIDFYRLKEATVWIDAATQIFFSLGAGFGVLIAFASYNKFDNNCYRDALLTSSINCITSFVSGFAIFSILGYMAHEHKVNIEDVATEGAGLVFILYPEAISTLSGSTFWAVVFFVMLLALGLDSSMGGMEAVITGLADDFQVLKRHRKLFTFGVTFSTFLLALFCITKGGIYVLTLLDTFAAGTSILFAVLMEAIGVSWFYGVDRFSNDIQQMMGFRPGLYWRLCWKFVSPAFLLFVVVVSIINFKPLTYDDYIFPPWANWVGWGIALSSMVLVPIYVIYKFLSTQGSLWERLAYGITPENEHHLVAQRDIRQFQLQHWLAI
# Sequence of Human α2δ-1 subunit of Cav2.2 calcium channel (P54289 25-1103): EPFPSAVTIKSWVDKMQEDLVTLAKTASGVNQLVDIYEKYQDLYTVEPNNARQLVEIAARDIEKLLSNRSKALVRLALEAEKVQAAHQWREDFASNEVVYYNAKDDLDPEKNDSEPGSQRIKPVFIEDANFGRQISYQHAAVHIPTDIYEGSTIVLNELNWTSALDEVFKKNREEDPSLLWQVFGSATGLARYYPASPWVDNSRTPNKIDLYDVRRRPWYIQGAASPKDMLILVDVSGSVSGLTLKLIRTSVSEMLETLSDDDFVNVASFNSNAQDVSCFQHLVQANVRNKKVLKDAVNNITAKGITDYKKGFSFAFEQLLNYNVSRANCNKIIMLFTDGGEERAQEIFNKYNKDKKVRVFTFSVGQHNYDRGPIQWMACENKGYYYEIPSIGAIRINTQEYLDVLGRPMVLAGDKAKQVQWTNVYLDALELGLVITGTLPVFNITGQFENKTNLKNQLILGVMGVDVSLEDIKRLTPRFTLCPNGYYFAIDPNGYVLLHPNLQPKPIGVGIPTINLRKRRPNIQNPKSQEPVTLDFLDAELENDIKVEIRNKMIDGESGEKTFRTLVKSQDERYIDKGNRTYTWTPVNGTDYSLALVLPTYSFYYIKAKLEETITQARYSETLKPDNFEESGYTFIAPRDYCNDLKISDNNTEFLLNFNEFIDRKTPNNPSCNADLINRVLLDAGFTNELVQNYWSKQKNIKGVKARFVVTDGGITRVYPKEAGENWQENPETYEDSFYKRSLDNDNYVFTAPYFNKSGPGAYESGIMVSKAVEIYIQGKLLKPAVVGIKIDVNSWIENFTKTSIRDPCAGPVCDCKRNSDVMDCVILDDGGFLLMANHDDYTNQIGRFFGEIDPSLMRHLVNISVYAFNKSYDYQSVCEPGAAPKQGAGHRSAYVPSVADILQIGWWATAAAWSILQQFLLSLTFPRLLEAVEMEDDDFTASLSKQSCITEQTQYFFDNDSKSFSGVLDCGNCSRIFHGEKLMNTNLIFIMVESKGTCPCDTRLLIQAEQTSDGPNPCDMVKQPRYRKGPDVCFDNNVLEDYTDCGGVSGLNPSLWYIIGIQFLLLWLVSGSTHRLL
SMILES,Ki [1] [nM],Ki [2] [nM]
"CNCCC(Oc1cccc(-c2ccnc(OC)n2)c1)c1ccccc1 (centres unmarked) [Example 1, 3-(3-(2-Methoxypyrimidin-4-yl)phenoxy)-N-methyl-3-phenylpropan-1-amine]",500 to 5000,< 100
"CNCCC(Oc1cccc(-c2ccnc(C)n2)c1)c1ccccc1 (centres unmarked) [Example 2, N-methyl-3-(3-(2-methylpyrimidin-4-yl)phenoxy)-3-phenylpropan-1-amine]",500 to 5000,100 to 500
"CNCCC(Oc1cccc(-c2ccc(C)nn2)c1)c1ccccc1 (centres unmarked) [Example 3, N-methyl-3-(3-(6-methylpyridazin-3-yl)phenoxy)-3-phenylpropan-1-amine]",≥ 5000,500 to 1000
"CNCCC(Oc1cccc(-c2ccncn2)c1)c1ccccc1 (centres unmarked) [Example 4, N-methyl-3-phenyl-3-(3-(pyrimidin-4-yl)phenoxy)propan-1-amine]",500 to 5000,500 to 1000
"CNCC[C@H](Oc1cccc(-c2ccnc(SC)n2)c1)c1ccccc1 [Example 5, (S)—N-methyl-3-(3-(2-(methylthio)pyrimidin-4-yl)phenoxy)-3-phenylpropan-1-amine]",500 to 5000,< 100
"CNCC[C@H](Oc1cccc(-c2ccnc(C)n2)c1)c1ccccc1 [Example 6, (S)—N-methyl-3-(3-(2-methylpyrimidin-4-yl)phenoxy)-3-phenylpropan-1-amine]",500 to 5000,100 to 500
"CNCC[C@@H](Oc1cccc(-c2ccnc(C)n2)c1)c1ccccc1 [Example 7, (R)—N-methyl-3-(3-(2-methylpyrimidin-4-yl)phenoxy)-3-phenylpropan-1-amine]",500 to 5000,500 to 1000
"CNCC[C@@H](Oc1cccc(-c2ccnc(SC)n2)c1)c1ccccc1 [Example 8, (R)—N-methyl-3-(3-(2-(methylthio)pyrimidin-4-yl)phenoxy)-3-phenylpropan-1-amine]",500 to 5000,< 100
"CNCC[C@H](Oc1cccc(-c2ccnc(N)n2)c1)c1ccccc1 [Example 10, (S)-4-(3-(3-(methylamino)-1-phenylpropoxy)phenyl)pyrimidin-2-amine]",500 to 5000,100 to 500
"CNCCC(Oc1cccc(-c2cnc(OC)nc2)c1)c1cccs1 (centres unmarked) [Example 18, 3-(3-(2-methoxypyrimidin-5-yl)phenoxy)-N-methyl-3-(thiophen-2-yl)propan-1-amine]",500 to 5000,≥ 1000
"CNCCC(Oc1cccc(-c2ccnc(C)c2)c1)c1cccs1 (centres unmarked) [Example 19, N-methyl-3-(3-(2-methylpyridin-4-yl)phenoxy)-3-(thiophen-2-yl)propan-1-amine]",< 500,100 to 500
"CNCCC(Oc1cccc(-c2ccnc(C(F)(F)F)c2)c1)c1cccs1 (centres unmarked) [Example 22, N-methyl-3-(thiophen-2-yl)-3-(3-(2-(trifluoromethyl)pyridin-4-yl)phenoxy)propan-1-amine]",500 to 5000,100 to 500
"CNCCC(Oc1cccc(-c2cnc(C)nc2)c1)c1cccs1 (centres unmarked) [Example 23, N-methyl-3-(3-(2-methylpyrimidin-5-yl)phenoxy)-3-(thiophen-2-yl)propan-1-amine]",500 to 5000,≥ 1000
"CNCCC(Oc1cccc(-c2ccncc2C)c1)c1cccs1 (centres unmarked) [Example 24, N-methyl-3-(3-(3-methylpyridin-4-yl)phenoxy)-3-(thiophen-2-yl)propan-1-amine]",500 to 5000,500 to 1000
"CNCCC(Oc1cccc(-c2cc(C)nc(C)c2)c1)c1cccs1 (centres unmarked) [Example 26, 3-(3-(2,6-dimethylpyridin-4-yl)phenoxy)-N-methyl-3-(thiophen-2-yl)propan-1-amine]",500 to 5000,100 to 500

# The remaining lines, values ahead:
Ki [1] [nM],Ki [2] [nM],SMILES
500 to 5000,100 to 500,"CNCCC(Oc1cccc(-c2ccncc2)c1)c1cccs1 (centres unmarked) [Example 27, N-methyl-3-(3-(pyridin-4-yl)phenoxy)-3-(thiophen-2-yl)propan-1-amine]"
500 to 5000,≥ 1000,"CNCC[C@H](Oc1cccc(-c2ccnc(N3CCNCC3)n2)c1)c1ccccc1 [Example 28, (S)—N-Methyl-3-phenyl-3-(3-(2-(piperazin-1-yl)pyrimidin-4-yl)phenoxy)propan-1-amine]"
500 to 5000,100 to 500,"CCNc1nccc(-c2cccc(O[C@@H](CCNC)c3ccccc3)c2)n1 [Example 29, (S)—N-ethyl-4-(3-(3-(methylamino)-1-phenylpropoxy)phenyl)pyrimidin-2-amine]"
≥ 5000,< 100,"CNCC[C@H](Oc1cccc(-c2ccnc(NC)n2)c1)c1ccccc1 [Example 30, (S)—N-methyl-4-(3-(3-(methylamino)-1-phenylpropoxy)phenyl)pyrimidin-2-amine]"
500 to 5000,≥ 1000,"CNCC[C@H](Oc1cccc(-c2ccnc(N3CCN(C)CC3)n2)c1)c1ccccc1 [Example 31, (S)—N-methyl-3-(3-(2-(4-methylpiperazin-1-yl)pyrimidin-4-yl)phenoxy)-3-phenylpropan-1-amine]"
500 to 5000,≥ 1000,"CNCCNc1nccc(-c2cccc(O[C@@H](CCNC)c3ccccc3)c2)n1 [Example 32, (S)—N1-methyl-N2-(4-(3-(3-(methylamino)-1-phenylpropoxy)phenyl)pyrimidin-2-yl)ethane-1,2-diamine]"
500 to 5000,≥ 1000,"CNCC[C@@H](Oc1cccc(-c2ccnc(N[C@@H]3CCNC3)n2)c1)c1ccccc1 [Example 33, 4-(3-((R)-3-(methylamino)-1-phenylpropoxy)phenyl)-N—((R)-pyrrolidin-3-yl)pyrimidin-2-amine]"
500 to 5000,500 to 1000,"CNCC[C@@H](Oc1cccc(-c2ccnc(N[C@H]3CCNC3)n2)c1)c1ccccc1 [Example 34, 4-(3-((R)-3-(methylamino)-1-phenylpropoxy)phenyl)-N—((S)-pyrrolidin-3-yl)pyrimidin-2-amine]"
≥ 5000,< 100,"CNCC[C@H](Oc1cccc(-c2ccnc(N(C)C)n2)c1)c1ccccc1 [Example 35, (S)—N,N-dimethyl-4-(3-(3-(methylamino)-1-phenylpropoxy)phenyl)pyrimidin-2-amine]"
500 to 5000,500 to 1000,"CNCC[C@H](Oc1cccc(-c2ccnc(N[C@@H]3CCNC3)n2)c1)c1ccccc1 [Example 36, 4-(3-((S)-3-(methylamino)-1-phenylpropoxy)phenyl)-N—((R)-pyrrolidin-3-yl)pyrimidin-2-amine]"
